Legend:
[1] = target: PIK3CA (human) (UniProt P42336); test: Enzyme Assay
[2] = target: PIK3CG (human) (UniProt P48736); test: Inhibition of PIK3CG Kinase Activity
Chain of PIK3CG (human) (P48736 whole entry, looked up): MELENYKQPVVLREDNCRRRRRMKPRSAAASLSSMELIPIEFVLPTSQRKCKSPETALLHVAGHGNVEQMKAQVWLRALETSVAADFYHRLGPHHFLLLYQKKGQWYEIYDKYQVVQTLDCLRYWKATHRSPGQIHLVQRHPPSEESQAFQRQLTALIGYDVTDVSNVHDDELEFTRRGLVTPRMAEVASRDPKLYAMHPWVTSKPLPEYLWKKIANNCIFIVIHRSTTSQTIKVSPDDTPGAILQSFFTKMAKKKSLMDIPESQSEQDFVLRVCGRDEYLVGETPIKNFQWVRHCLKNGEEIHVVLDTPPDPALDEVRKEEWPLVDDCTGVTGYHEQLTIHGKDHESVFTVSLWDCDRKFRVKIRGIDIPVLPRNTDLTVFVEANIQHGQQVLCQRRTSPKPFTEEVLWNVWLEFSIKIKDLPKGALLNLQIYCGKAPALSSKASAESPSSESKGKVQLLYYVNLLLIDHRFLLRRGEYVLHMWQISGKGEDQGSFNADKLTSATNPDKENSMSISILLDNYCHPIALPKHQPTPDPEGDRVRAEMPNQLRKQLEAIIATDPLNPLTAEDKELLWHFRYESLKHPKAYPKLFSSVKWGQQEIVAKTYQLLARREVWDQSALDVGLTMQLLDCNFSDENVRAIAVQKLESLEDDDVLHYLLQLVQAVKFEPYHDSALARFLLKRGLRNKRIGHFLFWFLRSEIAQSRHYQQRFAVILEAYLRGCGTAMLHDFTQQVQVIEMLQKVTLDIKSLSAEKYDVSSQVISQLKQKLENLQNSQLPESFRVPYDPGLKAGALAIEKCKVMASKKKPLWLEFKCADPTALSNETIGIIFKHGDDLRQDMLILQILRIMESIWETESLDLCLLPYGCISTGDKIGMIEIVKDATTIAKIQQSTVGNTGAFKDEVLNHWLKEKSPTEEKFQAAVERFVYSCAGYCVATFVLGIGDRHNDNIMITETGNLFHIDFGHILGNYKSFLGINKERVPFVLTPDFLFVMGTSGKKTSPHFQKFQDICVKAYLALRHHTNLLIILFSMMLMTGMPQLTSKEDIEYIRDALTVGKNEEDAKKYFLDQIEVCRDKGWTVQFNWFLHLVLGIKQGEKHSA

Chain of PIK3CA (human) (P42336 whole entry, looked up): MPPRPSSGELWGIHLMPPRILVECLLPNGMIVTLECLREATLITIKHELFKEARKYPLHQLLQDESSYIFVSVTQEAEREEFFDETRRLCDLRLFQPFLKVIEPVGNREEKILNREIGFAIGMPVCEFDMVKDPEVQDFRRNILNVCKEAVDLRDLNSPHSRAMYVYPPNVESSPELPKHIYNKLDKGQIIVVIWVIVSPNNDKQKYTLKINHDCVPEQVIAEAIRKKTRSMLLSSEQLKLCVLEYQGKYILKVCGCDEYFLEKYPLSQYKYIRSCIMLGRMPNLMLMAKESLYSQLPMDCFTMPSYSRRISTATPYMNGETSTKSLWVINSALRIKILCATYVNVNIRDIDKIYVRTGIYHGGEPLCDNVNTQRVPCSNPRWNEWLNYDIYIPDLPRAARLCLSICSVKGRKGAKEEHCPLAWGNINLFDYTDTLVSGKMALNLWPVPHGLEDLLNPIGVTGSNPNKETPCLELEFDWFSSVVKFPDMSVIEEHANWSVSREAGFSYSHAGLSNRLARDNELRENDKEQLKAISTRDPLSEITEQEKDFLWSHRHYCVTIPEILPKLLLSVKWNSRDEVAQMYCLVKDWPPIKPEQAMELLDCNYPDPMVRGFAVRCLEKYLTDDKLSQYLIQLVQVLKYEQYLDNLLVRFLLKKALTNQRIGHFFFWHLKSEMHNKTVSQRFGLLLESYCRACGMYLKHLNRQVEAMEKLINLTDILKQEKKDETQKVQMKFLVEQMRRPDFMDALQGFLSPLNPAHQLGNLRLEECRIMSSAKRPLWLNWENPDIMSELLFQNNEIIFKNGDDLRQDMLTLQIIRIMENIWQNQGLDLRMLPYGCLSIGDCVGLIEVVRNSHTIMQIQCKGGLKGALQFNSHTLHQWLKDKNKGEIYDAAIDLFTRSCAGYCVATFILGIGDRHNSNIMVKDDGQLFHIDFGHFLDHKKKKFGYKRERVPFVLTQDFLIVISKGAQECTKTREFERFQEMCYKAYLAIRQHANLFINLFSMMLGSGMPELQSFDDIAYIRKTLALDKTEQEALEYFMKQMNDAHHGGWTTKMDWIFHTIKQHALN

Compound | IC50 [1] [µM] | IC50 [2] [µM]
COc1ccc2[nH]c(CCn3ccnc3)c(/C=C3\Oc4cc(O)cc(O)c4C3=O)c2c1 | 0.0095 | 0.0815
O=C1/C(=C/c2c[nH]c3ccc(Cl)cc23)Oc2c1ccc(O)c2O | – | 5
COc1ccc2[nH]cc(/C=C3\Oc4cc(O)cc(-c5ccccc5)c4C3=O)c2c1 | 0.122 | –
Cn1cc(C=C2Oc3cc(O)cc(O)c3C2=O)c2c(Cl)cccc21 | – | 10
COc1ccc2[nH]cc(/C=C3\Oc4c(OC)cccc4C3=O)c2c1 | 9.86 | –
COc1ccc2c(c1)c(C=C1Oc3cccc(O)c3C1=O)c(C)n2CCN1CCN(CCO)CC1 | 0.478 | 3.97
COc1ccc2c(c1)c(C=C1Oc3c(ccc(O)c3O)C1=O)c(C)n2CCCCN1CCN(C)CC1 | 0.337 | 4.15
Cc1ccc2c(c1)C(=O)/C(=C/c1c(-c3ccc4ccccc4c3)[nH]c3ccccc13)S2 | 12 | –
O=C1C(=Cc2c(-c3ccccc3)n(Cc3ccncc3)c3ccccc23)Oc2cc(O)cc(O)c21 | – | 11
Cn1cc(/C=C2/Oc3cc(O)cc(O)c3C2=O)c2c(-c3ccccc3)cccc21.Cn1cc(/C=C2\Oc3cc(O)cc(O)c3C2=O)c2c(-c3ccccc3)cccc21 | 0.266 | –
CN(C)Cc1ccc(-c2ccc(-c3c(/C=C4\Oc5cc(O)cc(O)c5C4=O)c4ccccc4n3C)cc2)cc1 | 1.23 | 2.31
COc1ccc2c(c1)c(C=C1Oc3c(ccc(O)c3O)C1=O)c(C)n2CCCCN1CCOCC1 | 0.231 | 0.954
COc1ccc2c(c1)c(/C=C1\Oc3ccc(Br)cc3C1=O)cn2CCCN(C)C | – | 5
CNC(=O)Nc1ccc2c(c1)O/C(=C\c1cn(CCCN(C)C)c3ccc(OC)cc13)C2=O | 10 | –
COc1cc(-c2ccncc2)c2c(c1)c(/C=C1\Oc3cc(O)ccc3C1=O)cn2CCCC#N | – | 5
O=C1C(=Cc2c(-c3ccccc3)n(Cc3cccnc3)c3ccccc23)Oc2cc(O)cc(O)c21 | – | 11
O=C1C(=Cc2c(-c3ccccc3)n(CCN3CCCCC3)c3ccccc23)Oc2cc(O)cc(O)c21 | 2.28 | 4.88
Cc1ccc2c(c1)C(=O)/C(=C/c1c(C)[nH]c3ccc([N+](=O)[O-])cc13)S2 | 9.19 | –

Compound | IC50 [1] [µM] | IC50 [2] [µM]
CCc1cc(OC)cc2c(/C=C3\Oc4cc(O)cc(O)c4C3=O)cn(CCCC#N)c12 | 0.0625 | –
COC(=O)Nc1ccc2c(c1)C(=O)/C(=C/c1cn(CCN3CCN(C)CC3)c3ccc(OC)cc13)O2 | 0.63 | 7.36
COc1ccc2c(c1)c(/C=C1\Oc3c(ccc(O)c3C)C1=O)c(C)n2CCCN(C)C | – | 5
Cn1c(-c2ccc(-c3ccc(CN)cc3)cc2)c(/C=C2\Oc3cc(O)cc(O)c3C2=O)c2ccccc21 | 2.86 | 9.5
COc1ccc2c(c1)c(C=C1Oc3c(ccc(O)c3O)C1=O)c(C)n2CCCCN1CCN(CCO)CC1 | 0.204 | 3.17
Cn1cc(/C=C2\Oc3cc(O)cc(O)c3C2=O)c2c(Br)cccc21 | 3.31 | 1.94
CCc1cc(O)cc2c1C(=O)/C(=C/c1c[nH]c3ccc(OC)cc13)O2 | 0.133 | –
COc1ccc2[nH]cc(/C=C3\Oc4cc(S(=O)(=O)OC(F)(F)F)ccc4C3=O)c2c1 | – | 9.35
O=C1C(=Cc2c[nH]c3cc(Cl)ccc23)Oc2cc(O)cc(O)c21 | – | 10
COc1ccc2[nH]cc(/C=C3\Oc4cc(O)cc(Br)c4C3=O)c2c1 | 0.12 | –
COc1cc(/C=C/CC2CCNCC2)c2[nH]cc(/C=C3\Oc4cc(O)ccc4C3=O)c2c1 | 0.048 | 1.89
COc1ccc(-c2cccc3c2c(/C=C2\Oc4cc(O)cc(O)c4C2=O)cn3C)cn1 | – | 5
COc1ccc2c(c1)c(C=C1Oc3cccc(O)c3C1=O)c(C)n2CCN1CCOCC1 | 0.65 | 4.13
Cc1cccc2c1c(/C=C1\Oc3cc(O)cc(O)c3C1=O)c(-c1ccccn1)n2C | – | 11
COc1ccc2c(c1)c(C=C1Oc3cccc(O)c3C1=O)c(C)n2CCN1CCN(C)CC1 | 0.488 | 4.5
O=C1C(=Cc2c(Br)[nH]c3ccccc23)Oc2c1ccc(O)c2O | – | 5
CN(c1ccccc1)c1cccc2c1c(/C=C1\Oc3cc(O)cc(O)c3C1=O)cn2C | – | 5

Source: the Kinase Knowledgebase extract (Sharma et al. 2016)
